Measurements taken from article PMC11847324, “A communication hub for phosphoregulation of kinetochore-microtubule attachment” (Current biology : CB, 2024).

Legend:
[1] = tested on: Ndc80c^dwarf; assay: Fluorescence polarization competition, reporter Bodipy-FL Mps1(137–171); type: binding, S. cerevisiae
Description: We measured by fluorescence polarization the affinity of Ndc80^dwarf, a shortened version of Ndc80c[51], for a peptide comprising Mps1 residues 137–171, plus a C-terminal cysteine for labeling. We labeled the peptide with the Bodipy fluorophore and determined fluorescence anisotropy as a function of Ndc80c^dwarf concentration (Figure 3A). We then used unlabeled wild-type and mutant peptides in a competition format, at a fixed Ndc80c^dwarf concentration (Figures 3B,C). The mutant peptides corresponded to mutations characterized in one of the accompanying papers. […] Mutating either the basic residues or the hydrophobic residues in the first part of the consensus motif or the conserved arginine at the end of the second part lowered affinity (raised the Ki) by roughly two logs; mutating both the final arginine and the hydrophobic residues eliminated any detectable competition.
(§1) Figure 3. Fluorescence polarization measurements of Ndc80c^dwarf binding peptides from the N-terminal extensions of Mps1 and Ipl1. (A) Polarization of fluorescence from 20 nM Bodipy-FL Mps1(137–171) (Mps1 residues 137–171 plus a C-terminal cysteine modified with Bodipy-FL -- see Methods) and Bodipy-FL Ipl1 (26–39;45–59) as a function of Ndc80c^dwarf concentration. (B) Competition binding experiment: unlabeled competitor peptides (see figure annotation) were added in twofold serial dilutions to Bodipy-FL Mps1(137–171) and Ndc80c^dwarf at final concentrations of 20 nM and 500 nM respectively. Loss of polarization indicates displacement of bound Bodipy-FL Mps1(137–171) by the competitor. (C) As in (B), with competitor Mps1(137–171) peptides containing mutations that reduce affinity for Ndc80c[40]. (D) Polarization of fluorescence from 20 nM Bodipy-FL Mps1(137–171) as a function of the concentration of Ndc80c^dwarf bearing mutations in Nuf2 that interfere with its Mps1 interaction in cells. (E) As in (B), but with 20 nM Bodipy-FL Ipl1 (26–39;45–59) as the fluorescent reporter and 27μM Ndc80c^dwarf. […] For the Ipl1 peptide, the second copy of the motif, not used for the fluorescence polarization experiments, is shown in the bottom line.
Mps1 (137–171), Ipl1 (26–39;45–59), and Dam1 (254–270;290–305) peptides with added C-terminal cysteines, were synthesized by the Tufts University Core Facility. […] Fluorescence polarization was measured at 25°C with an Envision plate reader (Perkin Elmer) equipped with a filter set optimized for fluorescence polarization of FITC, which has the same absorption and emission spectra as those of Bodipy FL. […] Fluorescence polarization was measured in triplicate. […] An equal volume of a buffer-matched solution containing 40 nM Bodipy-FL labelled peptide and 1 μM Ndc80c^dwarf was added to each of the dilutions, and fluorescence polarization was measured in triplicate. […]

[2] = tested on: Ndc80c^dwarf; assay: Fluorescence polarization competition, reporter Bodipy-FL Ipl1 (26–39;45–59); type: binding, S. cerevisiae; details: 20 nM Bodipy-FL Ipl1 (26–39;45–59), 27μM Ndc80c^dwarf; competitor in twofold serial dilutions; 25°C; Figure 3E
Protocol: as §1, with “(B) Competition binding experiment: unlabeled competitor peptides (see figure annotation) were added in twofold serial dilutions to Bodipy-FL Mps1(137–171) and Ndc80c^dwarf at final concentrations of 20 nM and 500 nM respectively.” left out, “cells.” for “cells. (E) As in (B), but with 20 nM Bodipy-FL Ipl1 (26–39;45–59) as the fluorescent reporter and 27μM Ndc80c^dwarf.”
We measured the Ipl1 peptide affinity, both directly (Figure 3A) and by measuring displacement of a fluorophore-labeled Mps1 peptide (Figure 3B) as a function of increasing concentrations of unlabeled Ipl1 peptide. […]
Mps1 (137–171), Ipl1 (26–39;45–59), and Dam1 (254–270;290–305) peptides with added C-terminal cysteines, were synthesized by the Tufts University Core Facility. […] Fluorescence polarization was measured in triplicate. […]

Ndc80c^dwarf, sequence (P33895 1-150): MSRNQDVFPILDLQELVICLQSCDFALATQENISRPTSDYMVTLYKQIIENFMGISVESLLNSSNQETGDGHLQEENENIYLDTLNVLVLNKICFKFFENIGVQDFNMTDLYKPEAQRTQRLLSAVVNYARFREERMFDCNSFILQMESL
Ndc80c^dwarf, sequence (P40460 115-310, further chain): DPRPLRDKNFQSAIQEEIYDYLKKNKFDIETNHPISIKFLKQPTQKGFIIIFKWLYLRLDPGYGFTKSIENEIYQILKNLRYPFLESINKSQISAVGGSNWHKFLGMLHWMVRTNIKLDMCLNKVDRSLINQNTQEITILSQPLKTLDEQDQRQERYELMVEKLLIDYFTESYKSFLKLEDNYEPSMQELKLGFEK

RQNMKEDITAKYAERRSKRFLISNRTTKLGPAKRAC [Mps1 (137–171), peptide comprising Mps1 residues 137–171, plus a C-terminal cysteine for labeling]
displacement of bound Bodipy-FL Mps1(137–171) by unlabeled competitor peptide ([1]; 20 nM Bodipy-FL Mps1(137–171), 500 nM Ndc80c^dwarf, competitor in twofold serial dilutions, 20 mM Tris pH 7.2, 100 mM NaCl, 2 mM TCEP, 25°C, triplicate, Figures 3B,C): displaced the fluorescent Mps1 peptide, at a concentration consistent with the affinity measured by direct titration | relative affinity of peptides for Ndc80c^dwarf (comparison in words) ([1]; direct titration (Figure 3A) and competition with Bodipy-FL Mps1(137–171) (Figure 3B)): nearly the same | displacement of Bodipy-FL Ipl1 (26–39;45–59) by unlabeled competitor peptide [2]: competed strongly
